The values that follow come from patent US12559474B2, “Triazine derivatives having virus replication inhibitory activity and pharmaceutical composition comprising the same” (priority 2021, dated 2026).

The subject of one test is SARS-CoV-2. The test can be described thus: microbe, parasite or virus in culture. The class given is cell-based. Particulars: Severe acute respiratory syndrome coronavirus 2, VeroE6/TMPRSS2, 72 h, 50% SARS-CoV-2 infected cell death inhibitory concentration, VeroE6/TMPRSS2 cells, 3 days culture.
In another test the target is SARS-CoV-2 3CL protease (Severe acute respiratory syndrome coronavirus 2, UniProt P0DTD1). In words: biochemical. Particulars: 50% SARS-CoV-2 3CL protease inhibitory concentration, read-out: IC50.

Read-outs that look alike come from different tables or passages of the source.

In the test on SARS-CoV-2 (class symbols), `Cn1cnc(Cn2c(=O)nc(Nc3cc4oc(N)nc4cc3Cl)n(Cc3cc(Cl)c(F)cc3F)c2=O)n1` [II-0056] yielded an EC50 of 1000 to 10000 nM. On SARS-CoV-2 3CL protease (given as class symbols), the IC50 was under 100 nM.

In turn, `Cn1cnc(Cn2c(=O)nc(Nc3cc4oc(N)nc4cc3Cl)n(Cc3cc(F)c(F)cc3F)c2=O)n1` [II-0057] yielded an EC50 in the test with SARS-CoV-2 (class symbols) of 1000 to 10000 nM. Besides, on SARS-CoV-2 3CL protease (given as class symbols), the IC50 is under 100 nM.

With `Cc1cncc(-n2c(=O)nc(Nc3cc4cn(CC(F)F)nc4cc3F)n(Cc3cc(F)c(F)c(Cl)c3)c2=O)c1` [II-0058], in the test on SARS-CoV-2 (class symbols), the EC50 was under 1000 nM. For the same molecule, the IC50 on SARS-CoV-2 3CL protease (given as class symbols) is under 100 nM.

On to `CNc1nc2cc(Cl)c(Nc3nc(=O)n(Cc4ncn(C)n4)c(=O)n3Cc3cc(F)c(F)c(Cl)c3)cc2o1` [II-0059], for which, in the test on SARS-CoV-2 (class symbols), the EC50 lay within 1000 to 10000 nM. Also, the IC50 at SARS-CoV-2 3CL protease (given as class symbols) is under 100 nM.

Take `Cn1cnc(Cn2c(=O)nc(Nc3cc4cn(C)nc4cc3F)n(Cc3cc(F)c(F)c(Cl)c3)c2=O)n1` [II-0060]: in the test on SARS-CoV-2 (class symbols), the EC50 is 1000 to 10000 nM. Besides, the IC50 at SARS-CoV-2 3CL protease (given as class symbols) was under 100 nM.

Turning to `CNc1nc2cc(Cl)c(Nc3nc(=O)n(Cc4ncn(C)n4)c(=O)n3Cc3cc(F)c(F)c(F)c3)cc2o1` [II-0061], the EC50 in the test with SARS-CoV-2 (class symbols) lay in the range of 1000 to 10000 nM. Moreover, the IC50 on SARS-CoV-2 3CL protease (given as class symbols) was under 100 nM.

Molecule `Cn1cnc(Cn2c(=O)nc(Nc3cc4cn(C)nc4cc3F)n(Cc3cc(F)c(F)c(F)c3)c2=O)n1` [II-0064] showed an EC50 in the test on SARS-CoV-2 (class symbols) of 1000 to 10000 nM. Moreover, at SARS-CoV-2 3CL protease (given as class symbols), the IC50 was under 100 nM.

On to `C#Cc1cc(F)c(F)cc1Cn1c(Nc2cc3cn(C)nc3cc2Cl)nc(=O)n(-c2cncc(C)c2)c1=O` [II-0065], for which the EC50 in the test on SARS-CoV-2 (class symbols) is under 1000 nM. On SARS-CoV-2 3CL protease (given as class symbols), the IC50 was under 100 nM.

As to `C/C=C/c1cc(F)c(F)cc1Cn1c(Nc2cc3cn(C)nc3cc2Cl)nc(=O)n(-c2cncc(C)c2)c1=O` [II-0066], the EC50 in the test with SARS-CoV-2 (class symbols) fell in the range of 1000 to 10000 nM. Also, the IC50 on SARS-CoV-2 3CL protease (given as class symbols) is under 100 nM.

In the case of `C=Cc1cc(F)c(F)cc1Cn1c(Nc2cc3cn(C)nc3cc2Cl)nc(=O)n(-c2cncc(C)c2)c1=O` [II-0067], in the test with SARS-CoV-2 (class symbols), the EC50 was under 1000 nM. Further, on SARS-CoV-2 3CL protease (given as class symbols), the IC50 is under 100 nM.

Turning to `CCc1cc(F)c(F)cc1Cn1c(Nc2cc3cn(C)nc3cc2Cl)nc(=O)n(-c2cncc(C)c2)c1=O` [II-0068], the EC50 in the test with SARS-CoV-2 (class symbols) was under 1000 nM. The IC50 at SARS-CoV-2 3CL protease (given as class symbols) is under 100 nM.

In turn, `CCCc1cc(F)c(F)cc1Cn1c(Nc2cc3cn(C)nc3cc2Cl)nc(=O)n(-c2cncc(C)c2)c1=O` [II-0069] came in with an EC50 with SARS-CoV-2 (class symbols) of 1000 to 10000 nM. In addition, the IC50 on SARS-CoV-2 3CL protease (given as class symbols) was under 100 nM.

`Cc1cncc(-n2c(=O)nc(Nc3cc4cn(C)nc4cc3Cl)n(Cc3cc(F)c(F)cc3C#N)c2=O)c1` [II-0070] showed an EC50 with SARS-CoV-2 (class symbols) of 1000 to 10000 nM. The IC50 on SARS-CoV-2 3CL protease (given as class symbols) was under 100 nM.

Molecule `Cc1cncc(-n2c(=O)nc(Nc3cc4cn(C)nc4cc3Cl)n(Cc3cc(C#N)c(F)cc3OCC(C)C)c2=O)c1` [II-0071] had an EC50 in the test with SARS-CoV-2 (class symbols) of under 1000 nM. For the same molecule, the IC50 at SARS-CoV-2 3CL protease (given as class symbols) was under 100 nM.

On to `Cc1cncc(-n2c(=O)nc(Nc3cc4cn(C)nc4cc3Cl)n(Cc3cc(F)c(F)cc3CCC(C)(C)O)c2=O)c1` [II-0073], for which the EC50 in the test on SARS-CoV-2 (class symbols) lay within 1000 to 10000 nM. In addition, the IC50 on SARS-CoV-2 3CL protease (given as class symbols) is under 100 nM.

With `COC(=O)Nc1nc2cc(Cl)c(Nc3nc(=O)n(-c4cncc(C)c4)c(=O)n3Cc3ccc(F)c(C#N)c3)cc2s1` [II-0074], it took 248 nM to reach a half-maximal effect in the test with SARS-CoV-2 (CellTiter-Glo 2.0) (EC50). Also, at SARS-CoV-2 3CL protease (RapidFire MS), the IC50 was 3.6 nM.

Molecule `COC(=O)Nc1nc2cc(Cl)c(Nc3nc(=O)n(Cc4ncn(C)n4)c(=O)n3Cc3cc(F)c(F)cc3F)cc2s1` [II-0075] showed an EC50 in the test on SARS-CoV-2 (class symbols) of under 1000 nM. Moreover, the IC50 at SARS-CoV-2 3CL protease (given as class symbols) was under 100 nM.

`Cc1cncc(-n2c(=O)nc(Nc3cc4cn(C)nc4cc3Cl)n(Cc3cc(C#N)ccc3C(F)(F)F)c2=O)c1` [II-0076]: the EC50 with SARS-CoV-2 (class symbols) was under 1000 nM. For the same molecule, at SARS-CoV-2 3CL protease (given as class symbols), the IC50 was under 100 nM.

For `Cc1cncc(-n2c(=O)nc(Nc3cc4cn(C)nc4cc3Cl)n(Cc3cc(Cl)ccc3C(F)(F)F)c2=O)c1` [II-0077], the EC50 in the test on SARS-CoV-2 (class symbols) was under 1000 nM. The IC50 at SARS-CoV-2 3CL protease (given as class symbols) is under 100 nM.

`O=c1nc(Nc2cc3cn(CCN4CCOCC4)nc3cc2Cl)n(Cc2cc(F)c(F)cc2F)c(=O)n1-c1cncc2ccccc12` [II-0078] gave an EC50 in the test on SARS-CoV-2 (class symbols) of under 1000 nM. Besides, on SARS-CoV-2 3CL protease (given as class symbols), the IC50 is under 100 nM.

The molecule `COC(=O)Nc1nc2cc(Cl)c(Nc3nc(=O)n(-c4cncc(C)c4)c(=O)n3Cc3cc(Cl)c(F)cn3)cc2s1` [II-0079] displayed an EC50 in the test on SARS-CoV-2 (class symbols) of under 1000 nM. Besides, the IC50 on SARS-CoV-2 3CL protease (given as class symbols) is under 100 nM.

For the molecule `COC(=O)Nc1nc2cc(Cl)c(Nc3nc(=O)n(Cc4ncn(C)n4)c(=O)n3Cc3cc(Cl)c(F)cn3)cc2s1` [II-0080], the EC50 in the test with SARS-CoV-2 (class symbols) lay in the range of 1000 to 10000 nM. For the same molecule, at SARS-CoV-2 3CL protease (given as class symbols), the IC50 is under 100 nM.

In the test on SARS-CoV-2 (class symbols), `Cn1cnc(Cn2c(=O)nc(Nc3cc4sc(NCC5CC5)nc4cc3Cl)n(Cc3cc(F)c(F)cc3F)c2=O)n1` [II-0082] returned an EC50 of 1000 to 10000 nM. In addition, the IC50 at SARS-CoV-2 3CL protease (given as class symbols) was under 100 nM.

The molecule `COc1ccc(Nc2nc(=O)n(Cc3cc(C)n[nH]c3=O)c(=O)n2Cc2cc(F)c(F)c(F)c2)c(Cl)c1` [II-0084] displayed an EC50 in the test with SARS-CoV-2 (class symbols) of under 1000 nM. Moreover, at SARS-CoV-2 3CL protease (given as class symbols), the IC50 is under 100 nM.

Regarding `Cc1cncc(-n2c(=O)nc(Nc3cc4cn(C)nc4cc3Cl)n(Cc3cc(C#N)c(F)cc3Cl)c2=O)c1` [II-0087], the EC50 in the test with SARS-CoV-2 (CellTiter-Glo 2.0) stood at 69 nM. In addition, the IC50 at SARS-CoV-2 3CL protease (RapidFire MS) stood at 2.5 nM.
